# Measured values: patent publication US20100331410A1, “Biaryl Amides” (Asterand UK Limited, priority 2008, published 2010)
row,SMILES,melting point [°C]
1,"NC(=O)/C=C/c1cccc(NC(=O)c2cc(-c3cccc(F)c3)ccc2F)c1 [Compound 7, 3-[(3′-Fluoro-4-fluorobiphenyl-3-carbonyl)amino]cinnamamide]",216 to 218
2,"O=C(COc1cccc(NC(=O)c2cc(-c3cccc(F)c3)ccc2F)c1)OCCO [Compound 1, 3-[(3′-Fluoro-4-fluorobiphenyl-3-carbonyl)amino]phenoxyacetic acid, ethylene glycol ester]",135 to 137
3,"CC(C)OC(=O)/C=C/c1cccc(NC(=O)c2cc(-c3cccc(F)c3)ccc2F)c1 [Compound 5, 3-[(3′-Fluoro-4-fluorobiphenyl-3-carbonyl)amino]cinnamic acid, isopropyl ester]",154 to 155
4,"NC(=O)COc1cccc(NC(=O)c2cc(-c3cccc(F)c3)ccc2F)c1 [Compound 3, 3-[(3′-Fluoro-4-fluorobiphenyl-3-carbonyl)amino]phenoxyacetamide]",203 to 206
5,"COC(=O)/C=C/c1cccc(NC(=O)c2cc(-c3cccc(F)c3)ccc2F)c1 [Compound 6, 3-[(3′-Fluoro-4-fluorobiphenyl-3-carbonyl)amino]cinnamic acid, methyl ester]",144 to 145
6,"COC(=O)COc1cccc(NC(=O)c2cc(-c3cccc(F)c3)ccc2F)c1 [Compound 4, 3-[(3′-Fluoro-4-fluorobiphenyl-3-carbonyl)amino]phenoxyacetic acid, methyl ester]",103 to 104
